LC retention time data for 75 compounds are collected here from the RepoRT retention time repository (doi:10.1021/acs.analchem.2c02893).

This series is described as follows: RP, Thermo Scientific Acclaim RSLC 120 C18, 100 × 2.1 mm, 2.2 µm, 30 °C, 0.2 mL/min, estimated dead time 1.1 min; A: 90% water + 10% methanol + 0.01% formic acid + 5 mM ammonium formate, pH 3.61; B: methanol + 0.01% formic acid + 5 mM ammonium formate, pH 3.61; gradient (min/%B) 0/1 1/1 2/39 13/99.9 15/99.9 15.1/1 20.1/1. To be noted: stereoisomer not certain.
In the case of `CC(C)c1nc(CN(C)C(=O)NC(C(=O)NC(Cc2ccccc2)CC(O)C(Cc2ccccc2)NC(=O)OCc2cncs2)C(C)C)cs1` (stereo not given) [Ritonavir], the LC retention time was 11.1 min. Then `COC=C(C(=O)OC)c1ccccc1Oc1cc(Oc2ccccc2C#N)ncn1` [Azoxystrobin], with 9.02 min; and `CN1CCCCC1Cn1cc(C(=O)C2C(C)(C)C2(C)C)c2ccccc21` (stereo not given) [AB-005], with 8.81 min; and `CCNC(C)Cc1ccccc1` (stereo not given) [Amphetamine-N-Ethyl], with 4.4 min. On to `O=C1NC(=O)C2CC=CCC12` (stereo not drawn) [Tetrahydrophthalimide (cis-) (1.2.3.6-)], for which the LC retention time is 4.37 min. Under `CC(Cc1ccccc1)NCCC(c1ccccc1)c1ccccc1` (stereo not given) [Prenylamine] stands 8.89 min; under `CN1COCN(Cc2cnc(Cl)s2)C1=N[N+](=O)[O-]` [Thiamethoxam], 4.25 min; under `COc1ccc(C(=O)c2cn(CCCCC(=O)O)c3ccccc23)cc1` [RCS-4-M-5-COOH-Pentyl], 8.81 min. Then `CC1NCCOC1c1ccccc1` (stereo not given) [Phenmetrazine], with 4.14 min; and `CCCCCCCC[N+](C)(C)C` [Trimethyloctylammonium], with 6.08 min; and `N#Cc1nn(-c2c(Cl)cc(C(F)(F)F)cc2Cl)c(N)c1SC(F)(F)F` [Fipronil-sulfide], with 10.8 min. Under `CC1CC(C)C(=O)C(C(O)CC2CC(=O)NC(=O)C2)C1` (stereo not given) [Cycloheximide] stands 5.99 min; under `Clc1ccc(C(c2ccccc2)N2CCNCC2)cc1` (stereo not given) [Piperazine -1[(4-chlorophenyl) phenyl methyl]], 8.53 min.

For `COC(=O)Nc1nc2ccc(C(=O)c3ccccc3)cc2[nH]1` [Mebendazole], the LC retention time was 8.25 min.

Regarding `COc1cc(CC(C)N)c(OC)cc1Cl` (stereo not given) [DOC], the LC retention time is 5.67 min.

Regarding `Cc1ccc(NC(=O)NC(C)(C)c2ccccc2)cc1` [Daimuron (Dymron)], the LC retention time is 9.68 min. Under `NCC(O)c1ccccc1` (stereo not given) [Apophedrin  (Phenylethanolamine)] stands 2.84 min; under `Cc1cccc2sc3nncn3c12` [Tricyclazole], 5.93 min; under `CCOC(=O)Nc1cccc(OC(=O)Nc2ccccc2)c1` [Medipham-Desmethyl (desmedipham)], 8.57 min.

As for `COP(=S)(OC)Oc1ccc(S(=O)(=O)N(C)C)cc1` [Famphur], the LC retention time is 7.99 min.

For the compound `CC(C)(C)NCC(O)COc1cccc2c1CCCC2=O` (stereo not given) [Levobunolol], the LC retention time is 4.84 min. Consider `CC(C)(C)N1CCC(c2ccccc2)(c2ccccc2)CC1` [Budipine], for which the LC retention time was 6.72 min.

Turning to `CN(c1nccc(=O)[nH]1)C1CCN(c2nc3ccccc3n2Cc2ccc(F)cc2)CC1` [Mizolastine], the LC retention time is 9.14 min. With `O=P1(NCCCl)OCCCN1CCCl` (stereo not given) [Ifosfamid], the LC retention time is 5.89 min. Then `CN(C)CCC(c1ccc(Br)cc1)c1ccccn1` (stereo not given) [Brompheniramine], with 6.56 min; and `CCNC1C2CCC(C2)C1c1ccccc1` (stereo not given) [Fencamfamine], with 6.08 min; and `NS(=O)(=O)c1cc2c(cc1Cl)NCNS2(=O)=O` [Hydrochlorothiazide (NH4)], with 3.24 min. Take `COc1ccc2[nH]cc(CCN(C)C)c2c1` [MeO-DMT (5-)]: the LC retention time is 3.98 min. Under `C=C(C)C(N)=O` [Methacrylamide] stands 2.81 min; under `CNC(=O)Oc1ccccc1C(C)C` [Isoprocarb], 8.12 min; under `O=S(=O)(O)c1ccc2ccccc2c1` [2-Naphthalin sulfonic acid], 5.44 min. For `O=C1CN=C(c2ccccc2Cl)c2cc([N+](=O)[O-])ccc2N1` [Clonazepam], the LC retention time is 7.61 min. For `CCOP(=S)(OCC)SCCS(=O)(=O)CC` [Disulfoton-sulfone], the LC retention time is 8.02 min. Then `CNC(C)C(=O)c1ccc(OC)cc1` (stereo not given) [Methedrone], with 4.16 min; and `CCC1C2CC3C4N(C)c5ccccc5C45CC(C2C5O)N3C1O` (stereo not given) [Ajmaline], with 5.19 min; and `CC(=O)OCC(=O)C12OC3(CCCC3)OC1CC1C3CCC4=CC(=O)C=CC4(C)C3(F)C(O)CC12C` (stereo not given) [Amcinonide], with 11.2 min. Under `CNC(=O)N(C)c1nc2ccccc2s1` [Methabenzthiazuron] stands 8.26 min. Under `CN1CCN=C(c2ccccc2)c2cc(Cl)ccc21` [Medazepam] stands 10.2 min. Take `N#Cc1nn(-c2c(Cl)cc(C(F)(F)F)cc2Cl)c(N)c1S(=O)C(F)(F)F` (stereo not given) [Fipronil]: the LC retention time was 10.5 min. Then `CC(=O)c1ccc(S(=O)(=O)NC(=O)NC2CCCCC2)cc1` [Acetohexamide], with 7.72 min. Under `CC(=O)OCCN1CCN(CCCN2c3ccccc3Sc3ccc(Cl)cc32)CC1` [Thiopropazate] stands 9.61 min; under `COc1ccc(C(CN(C)C)C2(O)CCCCC2)cc1` (stereo not given) [Venlafaxine], 6.14 min; under `Oc1ccc2c3c1OC1C(O)C=CC4C(C2)NCCC341` (stereo not given) [Morphine-Nor], 2.71 min. Under `COc1c(N2CC3CCCNC3C2)c(F)cc2c(=O)c(C(=O)O)cn(C3CC3)c12` (stereo not given) [Moxifloxacin] stands 5.17 min. `CN1CCC(OC(c2ccccc2)c2ccccc2)CC1` [Diphenylpyraline]: the LC retention time is 7.23 min. Then `CC1(C)C(C(=O)c2cn(CC3CCOCC3)c3ccccc23)C1(C)C` [A-834.735], with 11.4 min; and `CC(CC(c1ccccc1)c1ccccc1)NC(C)(C)C` (stereo not given) [Terodiline], with 7.91 min. Under `O=C(NC(=O)c1c(F)cccc1F)Nc1cc(Cl)c(OC(F)(F)C(F)C(F)(F)F)c(Cl)c1F` (stereo not given) [Noviflumuron] stands 12.7 min. Under `CC(=O)N=c1sc(S(N)(=O)=O)nn1C` [Methazolamide] stands 4.28 min; under `C#CCN1C(=O)COc2cc(F)c(N3C(=O)C4=C(CCCC4)C3=O)cc21` [Flumioxazin], 8.73 min; under `CC(CN1c2ccccc2Sc2cccnc21)N(C)C` (stereo not given) [Isothipendyl], 6.47 min.

For `CCCCCCCCCCCCCC[N+](C)(C)Cc1ccccc1` [Benzyldimethyltetradecylammonium], the LC retention time is 12.2 min. For the compound `CCCc1nn(C)c2c(=O)[nH]c(-c3cc(C(=O)CN4CC(C)NC(C)C4)ccc3OCC)nc12` (stereo not given) [Acetildenafil-Dimethyl], the LC retention time is 7.5 min. Take `Cc1ccc(NC(=O)N(C)C)cc1Cl` [Chlorotoluron]: the LC retention time is 7.98 min. Under `COC1CC(OC2C(C)OC(OC3C(C)=CCC4CC(CC5(C=CC(C)C(C(C)C)O5)O4)OC(=O)C4C=C(C)C(O)C5OCC(=CC=CC3C)C45O)CC2OC)OC(C)C1O` (stereo not given) [AvermectinB1b (Abamectin)] stands 13.4 min; under `NC(=O)N1c2ccccc2C2OC2c2ccccc21` (stereo not given) [Carbamazepine-10.11-epoxide], 6.04 min; under `CCc1nn(CCCN2CCN(c3cccc(Cl)c3)CC2)c(=O)n1CCOc1ccccc1` [Nefazodone], 9.95 min.

With `CNC(=O)ON=CC(C)(C)S(C)=O` (stereo not given) [Aldicarb-sulfoxide], the LC retention time is 3.5 min.

As to `CN1CCC23c4c5ccc(O)c4OC2C(O)CCC3C1C5` (stereo not given) [Morphine-Dihydro], the LC retention time was 2.66 min. Then `CCOc1ccc(NC(=O)CC(C)O)cc1` (stereo not given) [Bucetin], with 6.27 min; and `CCCc1nn(C)c2c(=O)[nH]c(-c3cc(C(=O)CCl)ccc3OCC)nc12` [Chlorodenafil], with 10.2 min; and `CC(=O)OC1CCC2C3CCC4CC(=O)C=C(C)C4(C)C3CCC12C` (stereo not given) [Metenolone acetate], with 12.5 min. Turning to `Cc1cc2c(OCC(O)CNC(C)C)cccc2[nH]1` (stereo not given) [Mepindolol], the LC retention time was 4.44 min. Then `CSC(=O)c1c(C(F)F)nc(C(F)(F)F)c(C(=O)SC)c1CC(C)C` [Dithiopyr], with 11.7 min; and `CC(C)NCC(O)COc1ccc(CC(N)=O)cc1` (stereo not given) [Atenolol], with 3.09 min.

As to `O=C1CN=C(c2ccccc2)c2c(sc3c2CCCC3)N1` [Bentazepam], the LC retention time is 9.49 min. Consider `CC(C)(C)NCC(O)COc1ccccc1C#N` (stereo not given) [Bunitrolol], for which the LC retention time was 4.66 min. For the compound `O=C(CC1NCCCC1O)Cn1cnc2cc(Br)c(Cl)cc2c1=O` (stereo not given) [Halofuginone], the LC retention time is 6.76 min. Consider `CCc1ccc(CCOc2ccc(CC3SC(=O)NC3=O)cc2)nc1` (stereo not given) [Pioglitazone], for which the LC retention time was 9.09 min. Then `O=C(O)CCCCC1SCC2NC(=O)NC21` (stereo not given) [Biotin], with 4.44 min; and `CC(CCN1CCOCC1)OC(=O)C1(c2ccccc2)CCOCC1` (stereo not given) [Fedrilate], with 6.12 min. Under `CN(C)CCOC1=Cc2ccccc2Sc2ccc(Cl)cc21` [Zotepine] stands 9.04 min. Under `CCCCCn1cc(C(=O)Cc2ccccc2Cl)c2ccccc21` [JWH-203] stands 12.2 min; under `NC(=O)N1c2ccccc2C=Cc2cc(O)ccc21` [2-Hydroxycarbamazepine], 6.03 min; under `CCC(C)C1OC2(C=CC1C)CC1CC(CC=C(C)C(OC3CC(OC)C(OC4CC(OC)C(NC)C(C)O4)C(C)O3)C(C)C=CC=C3COC4C(O)C(C)=CC(C(=O)O1)C34O)O2` (stereo not given) [Emamectin B1a], 12.4 min.
